Like-named read-outs stand apart in the source and are kept apart here.
Tests used:
[1] = target: T1, PI3Kα (Homo sapiens, UniProt P42336); experiment: PI3-Kinase HTRF assay, PI3Kα; format: biochemical; settings: bins Greater than 10 μM and Greater than 1 μM to 10 μM; 10 μM ATP, PIP2 at 10 μM; read-out: IC50 P13Kα
T1 construct: purchased Millipore Corporation 14-602-K
Description: A PI3-Kinase HTRF® assay kit (cat No. 33-016) purchased from Millipore Corporation was used to screen compounds provided herein. This assay used specific, high affinity binding of the GRPI pleckstrin homology (PH) domain to PIP3, the product of a Class 1A or 1B PI3 Kinase acting on its physiological substrate PIP2. During the detection phase of the assay, a complex was generated between the GST-tagged PH domain and biotinylated short chain PIP3. The biotinylated PIP3 and the GST-tagged PH domain recruited fluorophores (Streptavidin-Allophycocyanin and Europium-labeled anti-GST respectively) to form the fluorescence resonance energy transfer (FRET) architecture, generating a stable time-resolved FRET signal. The FRET complex was disrupted in a competitive manner by non-biotinylated PIP3, a product formed in the PI3 Kinase assay.
PI3 Kinase α, β, γ and δ activity was assayed using the PI3 Kinase HTRF® assay kit (catalogue No. 33-016) purchased from Millipore Corporation. Purified recombinant PI3Kα (catalogue No. 14-602-K), PI3Kβ (catalogue No. 14-603-K), PI3Kγ (catalogue No. 14-558-K) and PI3Kδ (catalogue No. 14-604-K) were obtained from Millipore Corporation. Purified recombinant PI3K enzyme was used to catalyze the phosphorylation of phosphatidylinositol 4,5-bisphosphate (PIP2 at 10 μM) to phosphatidylinositol 3,4,5-trisphosphate (PIP3) in the presence of 10 μM ATP. The assay was carried out in 384-well format and detected using a Perkin Elmer EnVision Xcite Multilabel Reader. Emission ratios were converted into percent inhibitions and imported into GraphPad Prism software. The concentration necessary to achieve inhibition of enzyme activity by 50% (IC50) was calculated using concentrations ranging from 20 μM to 0.1 nM (12-point curve). IC50 values were determined using a nonlinear regression model available in GraphPad Prism 5. […]

[2] = test system: Balb/c splenic B cells; experiment: B cell activation and proliferation assay; format: cell-based; settings: Mus musculus, read-out: B cell proliferation EC50
Experimental: The ability of one or more subject compounds to inhibit B cell activation and proliferation is determined according to standard procedures known in the art. For example, an in vitro cellular proliferation assay is established that measures the metabolic activity of live cells. The assay is performed in a 96 well microtiter plate using Alamar Blue reduction. Balb/c splenic B cells are purified over a Ficoll-Paque™ PLUS gradient followed by magnetic cell separation using a MACS B cell Isolation Kit (Miletenyi). Cells are plated in 90 μl at 50.000 cells/well in B Cell Media (RPMI+10% FBS+Penn/Strep+50 μME5 mM HEPES). A compound provided herein is diluted in B Cell Media and added in a 10 μl volume. Plates are incubated for 30 min at 37° C. and 5% CO2 (0.2% DMSO final concentration). A 50 μl B cell stimulation cocktail is then added containing either 10 μg/ml LPS or 5 μg/ml F(ab′)2 Donkey anti-mouse IgM plus 2 ng/ml recombinant mouse IL4 in B Cell Media. Plates are incubated for 72 hours at 37° C. and 5% CO2. A volume of 15 μL of Alamar Blue reagent is added to each well and plates are incubated for 5 hours at 37° C. and 5% CO2. Alamar Blue fluoresce is read at 560Ex/590Em, and IC50 or EC50 values are calculated using GraphPad Prism 5.

[3] = column bins 1 μM to 100 nM (given as 100-1000) and Less than 100 nM

T1 sequence (P42336 whole entry): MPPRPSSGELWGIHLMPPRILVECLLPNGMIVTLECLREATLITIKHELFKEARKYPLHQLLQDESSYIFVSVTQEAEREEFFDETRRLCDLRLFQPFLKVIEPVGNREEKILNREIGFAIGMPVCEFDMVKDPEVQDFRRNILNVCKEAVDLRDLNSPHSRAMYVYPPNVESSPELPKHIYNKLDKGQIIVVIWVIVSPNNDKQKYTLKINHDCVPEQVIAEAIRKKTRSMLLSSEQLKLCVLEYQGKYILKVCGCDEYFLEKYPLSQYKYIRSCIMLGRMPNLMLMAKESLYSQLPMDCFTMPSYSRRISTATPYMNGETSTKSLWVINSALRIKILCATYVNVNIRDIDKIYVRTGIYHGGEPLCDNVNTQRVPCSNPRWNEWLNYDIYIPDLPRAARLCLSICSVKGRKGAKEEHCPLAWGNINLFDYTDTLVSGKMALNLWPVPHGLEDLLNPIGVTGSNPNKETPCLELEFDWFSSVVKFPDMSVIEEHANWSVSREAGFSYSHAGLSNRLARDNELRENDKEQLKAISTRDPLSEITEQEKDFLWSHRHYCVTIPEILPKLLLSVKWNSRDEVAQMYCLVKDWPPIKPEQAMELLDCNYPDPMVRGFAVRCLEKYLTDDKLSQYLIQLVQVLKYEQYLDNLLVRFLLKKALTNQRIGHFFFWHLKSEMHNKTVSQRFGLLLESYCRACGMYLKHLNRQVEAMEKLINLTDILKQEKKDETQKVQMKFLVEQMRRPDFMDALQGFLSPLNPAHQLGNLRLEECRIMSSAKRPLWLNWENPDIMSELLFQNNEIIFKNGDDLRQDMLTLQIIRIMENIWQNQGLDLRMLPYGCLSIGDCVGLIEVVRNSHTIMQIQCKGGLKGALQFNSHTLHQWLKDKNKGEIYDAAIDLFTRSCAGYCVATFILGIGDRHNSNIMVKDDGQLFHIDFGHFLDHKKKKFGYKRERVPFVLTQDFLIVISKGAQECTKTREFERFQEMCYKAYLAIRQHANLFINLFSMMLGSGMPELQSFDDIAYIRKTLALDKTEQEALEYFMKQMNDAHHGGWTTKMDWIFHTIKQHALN
T1 sequence (P27986 whole entry partner): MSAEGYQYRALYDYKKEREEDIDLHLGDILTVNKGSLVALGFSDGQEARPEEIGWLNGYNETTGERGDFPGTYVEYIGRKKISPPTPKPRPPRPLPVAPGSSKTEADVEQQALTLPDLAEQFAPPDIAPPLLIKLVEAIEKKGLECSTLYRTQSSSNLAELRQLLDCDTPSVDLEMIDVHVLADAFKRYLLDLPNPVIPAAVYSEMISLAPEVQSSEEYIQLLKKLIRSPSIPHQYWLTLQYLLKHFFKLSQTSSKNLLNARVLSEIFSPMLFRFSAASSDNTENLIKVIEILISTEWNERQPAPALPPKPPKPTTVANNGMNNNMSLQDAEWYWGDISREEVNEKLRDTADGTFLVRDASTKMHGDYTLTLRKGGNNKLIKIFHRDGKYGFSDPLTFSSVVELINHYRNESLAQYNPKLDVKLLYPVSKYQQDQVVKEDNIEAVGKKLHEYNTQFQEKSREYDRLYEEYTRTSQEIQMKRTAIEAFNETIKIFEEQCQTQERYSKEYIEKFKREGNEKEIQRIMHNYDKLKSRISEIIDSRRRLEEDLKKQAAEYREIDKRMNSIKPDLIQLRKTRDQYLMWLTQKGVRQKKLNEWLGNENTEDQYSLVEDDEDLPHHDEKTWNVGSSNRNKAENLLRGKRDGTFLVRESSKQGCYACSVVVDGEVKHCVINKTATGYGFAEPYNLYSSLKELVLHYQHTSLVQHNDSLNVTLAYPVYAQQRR

IC50 [1] [nM] | SMILES | EC50 [2, 3] [nM] | EC50 [2] [nM]
1000 to 10000 | CNc1cc(-c2cccc3cc([C@H](C)Nc4nc(N)ncc4C#N)n(-c4ccccc4)c(=O)c23)ccn1 [Compound 185] | < 100 | 
 | C[C@H](Nc1nc(N)ncc1C#N)c1cc2cccc(Cl)c2c(=O)n1-c1cccnc1 [Compound 306] | < 100 | 
 | C[C@H](Nc1nc(N)ncc1C#N)c1cc2cccc(-c3cnc4ccccc4c3)c2c(=O)n1-c1ccccc1 [Compound 50] | < 100 | 
1000 to 10000 | COc1ccc(-c2cccc3cc([C@H](C)Nc4nc(N)ncc4C#N)n(-c4ccccc4)c(=O)c23)nc1 [Compound 206] | < 100 | 
 | COc1nc(-c2cnc(N)nc2N[C@@H](C)c2cc3cccc(Cl)c3c(=O)n2-c2ccccc2)cs1 [Compound 223] |  | < 100
1000 to 10000 | C[C@H](Nc1nc(N)ncc1C#N)c1cc2cccc(Cl)c2c(=O)n1-c1ccccc1 [Compound 8, (S)-2-amino-4-((1-(8-chloro-1-oxo-2-phenyl-1,2-dihydroisoquinolin-3-yl)ethyl)amino)pyrimidine-5-carbonitrile] | < 100 | 
1000 to 10000 | CCOc1ncc(-c2cnc(N)nc2N[C@@H](C)c2cc3cccc(Cl)c3c(=O)n2-c2ccccc2)s1 [Compound 371] | < 100 | 
1000 to 10000 | C[C@H](Nc1nc(N)ncc1C#N)c1cc2cccc(Cl)c2c(=O)n1-c1cccc(F)c1 [Compound 18] | < 100 | 
 | COc1cncc(-c2cccc3cc([C@H](C)Nc4nc(N)ncc4C#N)n(-c4ccccc4)c(=O)c23)c1 [Compound 9, (S)-2-amino-4-((1-(8-(5-methoxypyridin-3-yl)-1-oxo-2-phenyl-1,2-dihydroisoquinolin-3-yl)ethyl)amino)pyrimidine-5-carbonitrile] | < 100 | 
1000 to 10000 | C[C@H](Nc1nc(N)ncc1C#N)c1cc2cccc(-c3cncc(OC(F)F)c3)c2c(=O)n1-c1ccccc1 [Compound 152] | < 100 | 
1000 to 10000 | C[C@H](Nc1nc(N)ncc1C#N)c1cc2cccc(Cl)c2c(=O)n1-c1ccc(F)cc1F [Compound 255] |  | 
1000 to 10000 | Cc1ncc(-c2cccc3cc([C@H](C)Nc4nc(N)ncc4C#N)n(-c4cccc(F)c4)c(=O)c23)cn1 [Compound 20] | < 100 | 
 | Cc1ncc(-c2cnc(N)nc2N[C@@H](C)c2cc3cccc(Cl)c3c(=O)n2-c2ccccc2)s1 [Compound 372] | < 100 | 
1000 to 10000 | C#Cc1cccc2cc([C@H](C)Nc3nc(N)ncc3C#N)n(-c3ccccc3)c(=O)c12 [Compound 72] | < 100 | 
1000 to 10000 | CCn1c([C@H](C)Nc2nc(N)ncc2C#N)cc2cccc(Cl)c2c1=O [Compound 309] | < 100 | 
 | C[C@H](Nc1nc(N)ncc1C#N)c1cc2cccc(C#CCCC(=O)N3CCOCC3)c2c(=O)n1-c1ccccc1 [Compound 193] | < 100 | 
 | COc1cc(-c2cccc3cc([C@H](C)Nc4nc(N)ncc4-c4cc(O)cc(F)c4)n(-c4ccccc4)c(=O)c23)ccn1 [Compound 161] | 100 to 1000 | 
1000 to 10000 | C[C@H](Nc1nc(N)ncc1C#N)c1cc2cccc(-c3cccc(F)c3)c2c(=O)n1-c1ccccc1 [Compound 33] |  | 
1000 to 10000 | COc1ccc(-c2cccc3cc([C@H](C)Nc4nc(N)ncc4C#N)n(C4CC4)c(=O)c23)cn1 [Compound 108] | < 100 | 
 | COc1ncc(-c2cccc3cc([C@H](C)Nc4nc(N)ncc4C(F)(F)F)n(-c4ccccc4)c(=O)c23)cn1 [Compound 12] | < 100 | 
 | Cc1nc(N)nc(N[C@@H](C)c2cc3cccc(Cl)c3c(=O)n2-c2ccccc2)c1C#N [Compound 89, (S)-2-amino-4-(1-(8-chloro-1-oxo-2-phenyl-1,2-dihydroisoquinolin-3-yl)ethylamino)-6-methylpyrimidine-5-carbonitrile] | < 100 | 
 | C[C@H](Nc1nc(N)ncc1C#N)c1cc2cccc(-c3ccnc(O)c3)c2c(=O)n1-c1ccccc1 [Compound 130] | < 100 | 
 | C[C@H](Nc1cc(N)ncc1C(N)=O)c1cc2cccc(Cl)c2c(=O)n1-c1ccccc1 [Compound 431] | < 100 | 

IC50 [1] [nM] | SMILES | EC50 [2, 3] [nM] | EC50 [2] [nM]
1000 to 10000 | C[C@H](Nc1nc(N)ncc1C#N)c1cc2cccc(Cl)c2c(=O)n1-c1cc(F)ccc1F [Compound 264] |  | 
 | COc1ncc(-c2cccc3cc([C@H](C)Nc4nc(N)ncc4C#N)n(-c4cccc(F)c4)c(=O)c23)cn1 [Compound 22] | < 100 | 
 | COc1ncc(-c2cccc3cc([C@H](C)Nc4nc(N)ncc4C(F)(F)F)n(-c4cccc(F)c4)c(=O)c23)cn1 [Compound 31] | < 100 | 
 | C[C@H](Nc1nc(N)ncc1C#N)c1cc2cccc(-c3cncc(N(C)C)c3)c2c(=O)n1-c1ccccc1 [Compound 96] | < 100 | 
1000 to 10000 | COc1cncc(-c2cccc3nc([C@H](C)Nc4nc(N)ncc4C#N)n(-c4ccccc4)c(=O)c23)c1 [Compound 65] |  | 
 | C[C@H](Nc1nc(N)ncc1C#N)c1cc2cccc(Oc3ccccc3)c2c(=O)n1-c1ccccc1 [Compound 151] | < 100 | 
 | C[C@H](Nc1nc(N)ncc1C#N)c1cc2cccc(Cl)c2c(=O)n1C1CCCC1 [Compound 297] | < 100 | 
 | COc1cc(-c2cccc3cc([C@H](C)Nc4nc(N)ncc4C(=O)N4CC(F)(F)C4)n(-c4ccccc4)c(=O)c23)ccn1 [Compound 432] | 100 to 1000 | 
 | C[C@H](Nc1nc(N)ncc1C#N)c1cc2cccc(-c3cnc4[nH]ccc4c3)c2c(=O)n1-c1ccccc1 [Compound 47] | < 100 | 
 | COc1cc(-c2cccc3cc([C@H](C)Nc4nc(N)ncc4C#N)n(C4CC4)c(=O)c23)ccn1 [Compound 107] | < 100 | 
 | Cc1ncc(-c2cccc3nc([C@H](C)Nc4nc(N)ncc4C#N)n(-c4ccccc4)c(=O)c23)cn1 [Compound 63, (S)-2-amino-4-((1-(5-(2-methylpyrimidin-5-yl)-4-oxo-3-phenyl-3,4-dihydroquinazolin-2-yl)ethyl)amino)pyrimidine-5-carbonitrile] | < 100 | 
 | C[C@H](Nc1nc(N)ncc1C(=O)N1CCC1)c1cc2cccc(-c3cnn(C)c3)c2c(=O)n1-c1ccccc1 [Compound 204] |  | 1000 to 10000
1000 to 10000 | C[C@H](Nc1nc(N)ncc1C#N)c1cc2cccc(Cl)c2c(=O)n1-c1ccccc1F [Compound 267] |  | 
 | COc1cncc(-c2cccc3cc([C@H](C)Nc4nc(N)ncc4C#N)n(C4CC4)c(=O)c23)c1 [Compound 106] | < 100 | 
 | C[C@H](Nc1nc(N)ncc1C#N)c1cc2cccc(-c3cnc4[nH]ccc4c3)c2c(=O)n1-c1cccc(F)c1 [Compound 25] | < 100 | 
 | COc1cc(-c2cccc3cc([C@@H](C)Nc4nc(N)ncc4C#N)n(-c4ccccc4)c(=O)c23)ccn1 [Compound 380] | < 100 | 
 | COc1cc(-c2cccc3cc([C@H](C)Nc4nc(N)ncc4-c4ccc(F)c(O)c4)n(-c4ccccc4)c(=O)c23)ccn1 [Compound 163] | 100 to 1000 | 
 | COc1cc(-c2cccc3cc([C@H](C)Nc4nc(N)ncc4C(=O)N(C)C)n(-c4ccccc4)c(=O)c23)ccn1 [Compound 112] | < 100 | 
1000 to 10000 | COc1cc(-c2cccc3cc([C@H](C)Nc4nc(N)ncc4-c4cccnc4)n(-c4ccccc4)c(=O)c23)ccn1 [Compound 133] |  | 
 | Nc1nccc(Cl)n1 [Compound 79, 2-amino-4-chloro-pyrimidine] | < 100 | 
 | C[C@H](Nc1ncnc(N)c1[N+](=O)[O-])c1cc2cccc(Cl)c2c(=O)n1-c1ccccc1 [Compound 129] | < 100 | 
 | Cc1cc(N[C@@H](C)c2cc3cccc(Cl)c3c(=O)n2-c2ccccc2)nc(N)n1 [Compound 92, (S)-3-(1-((2-amino-6-methylpyrimidin-4-yl)amino)ethyl)-8-chloro-2-phenylisoquinolin-1(2H)-one] | 100 to 1000 | 
 | COc1cc(-c2cccc3cc([C@H](C)Nc4nc(N)ncc4-c4ccc(O)c(F)c4)n(-c4ccccc4)c(=O)c23)ccn1 [Compound 159] | < 100 | 
